Test results reported in US9415034B2, “Inhibitors and enhancers of uridine diphosphate-glucuronosyltransferase 2B (UGT2B)” (NATIONAL DEFENSE MEDICAL CENTER, priority 2005, dated 2016).
“And” between values parts separate entries of the source, which are not always exact repeats. Equal entries are not always repeated. Where two headings read alike, the source gives them in different places.

Assays:
[1] = in vivo; cited from earlier work
[2] = SD rat
[3] = SD rat, intravenous nalbuphine, with or without capillarisin, Mean ± SE, n = 6
[4] = in vivo; settings: male, Sprague-Dawley, rat, serum, po
[5] = in vivo; settings: male, Sprague-Dawley, rat, serum, iv, 1 mg/Kg
[6] = oral nalbuphine 100 mg/Kg, with or without capillarisin 4 mg/Kg, Mean ± SE, n = 6

Question: Which “half life through the excretion of liver” value [1] does the source give for `Oc1ccc2c3c1O[C@H]1[C@@H](O)CC[C@@]4(O)[C@@H](C2)N(CC2CCC2)CC[C@]314` [Nalbuphine, nalbuphine] here?
Answer: 5 h

Question: What about the “AUC(total)” value [2, 6] of the same molecule?
Answer: 24356 ± 8865 ng·min/mL

Question: What about the k [2, 6] of the same molecule?
Answer: 0.0027 ± 0.0007 min⁻¹

Question: What about the “absolute bio-availability of orally administered nalbuphine” value ([2]; oral nalbuphine with or without capillarisin) of the same molecule?
Answer: 5% and 12.759±4.64%

Question: What about the “AUC(total)” value [3] of the same molecule?
Answer: 1909 ± 330 ng·min/mL

Question: What about the CL/F [3] of the same molecule?
Answer: 50.6 ± 14.1 L/h/kg

Question: And the k [3]?
Answer: 0.016 ± 0.004 min⁻¹

Question: And the “AUC(total)” value ([3]; listed as nalbuphine)?
Answer: 7135 ± 1218 ng·min/mL

Question: What about the Cmax ([4]; 100 mg/Kg) of the same molecule?
Answer: 79.3 ± 18 ng/mL

Question: And the Tmax ([4]; 100 mg/Kg)?
Answer: 1.62 h

Question: What about the AUC(0-t) ([4]; 100 mg/kg) of the same molecule?
Answer: 357 ng·h/mL

Question: And the CL/F ([4]; 100 mg/kg)?
Answer: 350 ± 62.9 L/h/kg

Question: What about the Cmax ([4]; 100 mg/kg) of the same molecule?
Answer: 79 ± 18 ng/mL

Question: What about the MRT ([4]; 100 mg/kg) of the same molecule?
Answer: 8.27 h

Question: And the half-life ([4]; 100 mg/kg)?
Answer: 5.53 ± 1.03 h

Question: And the AUC(0-t) [5]?
Answer: 28.8 ng·h/mL

Question: What about the Cmax [5] of the same molecule?
Answer: 154 ± 30 ng/mL

Question: What about the MRT [5] of the same molecule?
Answer: 0.983 h

Question: And the half-life [5]?
Answer: 1.28 ± 0.483 h
